# Literature values as cited in patent publication US6982284B1, “Compositions and methods for modification of skin lipid content” (Applied Genetics Incorporated Dermatics, priority 1999, dated 2006).
# System: living skin equivalents
Compound,"glucosylceramides and ceramides, most notably ceramides 6 and 7 (50 ug/ml)",effect on lipid composition
O=C1O[C@H]([C@@H](O)CO)C(O)=C1O [Vitamin C],increases,–
Vitamin E,–,no effect
